Reference: patent US6391917B1, “Dialkyl ureas as calcitonin mimetics” (ZymoGenetics, Inc., priority 1998, dated 2002)

Test: Induction of hypocalcemia in rats
Format: in vivo
Details: weanling rats, tail vein, 0.5, 2.5, 5, 50 and 100 ng/rat, serum calcium one hour later
Procedure: This assay is based on the in vivo acute effect of calcitonin on osteoclasts, which causes rapid retraction of osteoclasts from bone surface (typically within 30 minutes) and which results in decreased bone resorption. See Mills, et al., in Endocrinology 1971—Proceedings of the Third International SymDosium, Taylor (ed), Heinemann Medical, London, pp. 79-88 (1972) and Singer, et al., Clin. Endocrinol. 5(Supp):333s-40s, 1976. The assay method was modified from the method described by Sturtridge and Kumar, Lancet 545:725-6, 1968. For the assay of hypocalcemic activity, weanling male Holtzman Sprague-Dawley rats (22 days old) are infused with vehicle (PBS with 1 mM HCl and 0.1% BSA), calcitonin or calcitonin mimetics through the tail vein. One hour later, blood samples are collected by orbital sinus puncture to determine serum levels of calcium. A decrease in serum calcium indicates a hypocalcemic response. The hypocalcemic response is dose-dependent as determined using salmon calcitonin (0.5, 2.5, 5, 50 and 100 ng/rat) in this model. Inhibition of PTH-induced hypercalcemia in TPTX rats

## salmon calcitonin
  hypocalcemic response: dose-dependent
